Literature values, collected in US20030203004A1, “Compositions comprising short and long chain fatty acids and methods of their use for the management of body weight” (priority 2002, published 2003).

Assays:
[1] = rats; jejunally infused neat, 0.2 mL/hr for seven hours
[2] = humans; sodium propionate included in bread; attributed to delayed gastric emptying rate
[3] = rats

SMILES	total daily caloric intake [1]	satiety [2]	effect on gastric emptying [3]
CCCCC/C=C\C/C=C\CCCCCCCC(=O)O [linoleic acid]	significantly reduce	–	–
CCCCCCCC/C=C\CCCCCCCC(=O)O [oleic acid]	significantly reduce	–	–
CCC(=O)[O-].[Na+] [sodium propionate]	–	induction of satiety	no effect
